Laboratory results from the NIST ThermoML archive (doi:10.1021/je050294+).
± gives the expanded uncertainty stated by the source.

Details: 101.33 kPa, Liquid; for speed of sound: Linear variable-path acoustic interferometer

CCCCO [butan-1-ol]
mass density (283.15 K): 817.48 ± 0.23 kg/m3
speed of sound (283.15 K): 1292.2 ± 1.4 m/s
mass density (298.15 K): 806.17 ± 0.23 kg/m3
speed of sound (298.15 K): 1240.7 ± 1.4 m/s
mass density (313.15 K): 794.51 ± 0.24 kg/m3
speed of sound (313.15 K): 1191.4 ± 1.4 m/s

CCC(C)O (stereo not drawn) [butan-2-ol]
mass density (283.15 K): 815.11 ± 0.59 kg/m3
speed of sound (283.15 K): 1266.6 ± 1.7 m/s
mass density (298.15 K): 803 ± 0.6 kg/m3
speed of sound (298.15 K): 1212.4 ± 1.7 m/s
mass density (313.15 K): 790.06 ± 0.61 kg/m3
speed of sound (313.15 K): 1158 ± 1.7 m/s

C=C1CCC2CC1C2(C)C (stereo not drawn) [β-pinene]
mass density (283.15 K): 878.97 ± 0.55 kg/m3
speed of sound (283.15 K): 1355.9 ± 1.8 m/s
mass density (298.15 K): 866.99 ± 0.55 kg/m3
speed of sound (298.15 K): 1295 ± 1.8 m/s
mass density (313.15 K): 854.89 ± 0.56 kg/m3
speed of sound (313.15 K): 1237.4 ± 1.7 m/s
